According to patent US7867992B2, “Substituted quinolones” (AiCuris GmbH & Co. KG, priority 2004, dated 2011):
Where a name gives a salt, the structure may show the parent alone. Read-outs that look alike come from different tables or passages of the source.

Tests used:
[1] = system: HCMV; assay: Anti-HCMV cytopathogenicity test (CPE inhibition); type: cell-based, human cytomegalovirus; conditions: for EC50: read-out: HCMV EC50; for SI HCMV (selectivity index): SI = CC50 (NHDF)/EC50 (HCMV)
Description: (§1) Anti-HCMV (Anti-human Cytomegalovirus) Cytopathogenicity Tests
(§2) The test compounds are employed as 50 millimolar (mM) solutions in dimethyl sulfoxide (DMSO). Ganciclovir®, Foscamet® and Cidofovir® are used as reference compounds. After the addition of 2 μl of the 50, 5, 0.5 and 0.05 mM DMSO stock solutions respectively to 98 μl portions of cell culture medium in row 2 A-H for duplicate determinations, 1:2 dilutions are carried out with 50 μl portions of medium up to row 11 of the 96-well plate. The wells in rows 1 and 12 each contain 50 μl of medium. 150 μl of a suspension of 1×10^4 cells (human prepuce fibroblasts [NHDF]) are then pipetted into each of the wells (row 1=cell control) and, in rows 2-12, a mixture of HCMV-infected and uninfected NHDF cells (M.O.I.=0.001-0.002), i.e. 1-2 infected cells per 1000 uninfected cells. Row 12 (without substance) serves as virus control. The final test concentrations are 250-0.0005 μM. The plates are incubated at 37° C./5% CO2 for 6 days, i.e. until all the cells in the virus controls are infected (100% cytopathogenic effect [CPE]). The wells are then fixed and stained by adding a mixture of formalin and Giemsa's dye (30 minutes), washed with double-distilled water and dried in a drying oven at 50° C. The plates are then assessed visually using an overhead microscope (plaque multiplier from Technomara).
(§3) The following data can be obtained from the test plates: • CC50 (NHDF)=substance concentration in μM at which no visible cytostatic effects on the cells are evident by comparison with the untreated cell control; • EC50 (HCMV)=substance concentration in μM which inhibits the CPE (cytopathic effect) by 50% compared with the untreated virus control; • SI (selectivity index)=CC50 (NHDF)/EC50 (HCMV).

[2] = Cytostatic effect on NHDF cells in the anti-HCMV cytopathogenicity test; type: cell-based; conditions: NHDF cells (human prepuce fibroblasts), 6 days incubation, visual assessment, concentration at which no visible cytostatic effects are evident vs untreated cell control
Description: as §1, §2, §3

[3] = Human betaherpesvirus 5, 144 h, HCMV-infected NHDF cells, M.O.I. 0.001-0.002, 6 days, 50% inhibition of CPE vs untreated virus control

Row | Structure (SMILES) | EC50 [1, 3] [nM] | SI HCMV (selectivity index) [1] | CC50 at 6 days [2] [nM] | EC50 ([1]; Human betaherpesvirus 5, NHDF, 144 h) [nM]
1 | COc1c(N2C[C@@H](C)N[C@@H](C)C2)c(F)cc2c(=O)c(C(=O)NCc3ccc(Cl)cc3Cl)cn([C@@H](C)C(F)(F)F)c12 [Example 45] | 77 | 31 | 2400 | 
2 | COc1c(N2C[C@@H](C)N[C@@H](C)C2)c(F)cc2c(=O)c(C(=O)NCc3ccc(OC(F)(F)F)cc3Cl)cn(CC(F)(F)F)c12 [Example 51] | 11 | 482 | 5300 | 
3 | COc1c(N2C[C@@H](C)N[C@@H](C)C2)c(F)cc2c(=O)c(C(=O)NCc3ccc(C(F)(F)F)cc3C)cn(C3CC3)c12 [Example 24] | 250 | 19 | 4700 | 
4 | COc1c(N2C[C@@H](C)N[C@@H](C)C2)c(F)cc2c(=O)c(C(=O)NCc3ccc(Cl)cc3Cl)cn([C@@H]3C[C@@H]3F)c12 (mixture of isomers) [Example 16, N-(2,4-Dichlorobenzyl)-7-[(3RS,5SR)-3,5-dimethylpiperazin-1-yl]-6-fluoro-1-[(1R,2S)-2-fluorocyclopropyl]-8-methoxy-4-oxo-1,4-dihydroquinoline-3-carboxamide] | 100 | 78 | 7800 | 
5 | COc1c(N2C[C@@H](C)N(C[C@@H](O)CO)[C@@H](C)C2)c(F)cc2c(=O)c(C(=O)NCc3ccc(Cl)cc3Cl)cn(C3CC3)c12 [Example 92] | 31 | 171 | 5300 | 
6 | COc1c(N2C[C@@H](C)N(C(=O)CN)[C@@H](C)C2)c(F)cc2c(=O)c(C(=O)NCc3ccc(Cl)cc3Cl)cn(C3CC3)c12 [Example 79, 1-Cyclopropyl-N-(2,4-dichlorobenzyl)-6-fluoro-7-[(3RS,5SR)-4-glycyl-3,5-dimethylpiperazin-1-yl]-8-methoxy-4-oxo-1,4-dihydroquinoline-3-carboxamide hydrochloride] |  | 145 | 7700 | 53
7 | C[C@@H]1CN(c2c(F)cc3c(=O)c(C(=O)NCc4ccc(Cl)cc4Cl)cn(C4CC4)c3c2Cl)C[C@H](C)N1 [Example 5, 8-Chloro-1-cyclopropyl-N-(2,4-dichlorobenzyl)-7-[(3RS,5SR)-3,5-dimethylpipierazin-1-yl]-6-fluoro-4-oxo-1,4-dihydroquinoline-3-carboxamide] | 230 | 26 | 6000 | 
8 | COc1c(N2C[C@@H](C)N[C@@H](C)C2)c(F)cc2c(=O)c(C(=O)NCc3ccc(Cl)cc3Cl)cn(CCF)c12 [Example 28, N-(2,4-Dichlorobenzyl)-7-[(3RS,5RS-3,5-dimethyl)piperazin-1-yl]-6-fluoro-1-(2-fluoroethyl)-8-methoxy-4-oxo-1,4-dihydroquinoline-3-carboxamide hydroformate] | 100 | 63 | 6100 | 
9 | COc1c(N2C[C@@H](C)N[C@@H](C)C2)c(F)cc2c(=O)c(C(=O)NCc3ccc(Cl)cc3Cl)cn(CC(F)F)c12 [Example 35] | 36.5 | 138 | 4800 | 
10 | COc1c(N2C[C@@H](C)N(CC(N)=O)[C@@H](C)C2)c(F)cc2c(=O)c(C(=O)NCc3ccc(Cl)cc3Cl)cn(CC(F)(F)F)c12 [Example 53, {(2RS,6SR)-4-[3-{[(2,4-Dichlorobenzyl)amino]carbonyl}-6-fluoro-8-methoxy-4-oxo-1-(2,2,2-trifluoroethyl)-1,4-dihydroquinolin-7-yl]-2,6-dimethylpiperazin-1-yl}acetamide] | 10 | 430 | 4300 | 
11 | COc1c(N2C[C@@H](C)N[C@@H](C)C2)c(F)cc2c(=O)c(C(=O)NCc3ccc(Cl)cc3Cl)cn([C@H]3C[C@H]3F)c12 [Example 34] | 19 | 442 | 8400 | 
12 | COc1c(N2C[C@@H](C)N(CC(=O)NS(C)(=O)=O)[C@@H](C)C2)c(F)cc2c(=O)c(C(=O)NCc3ccc(OC(F)(F)F)cc3C)cn(CC(F)(F)F)c12 [Example 68] | 2 | 12000 | 24000 | 
13 | COc1c(N2CCN(CCC(N)=O)C(C)C2)c(F)cc2c(=O)c(C(=O)NCc3ccc(Cl)cc3Cl)cn(C3CC3)c12 (stereo not drawn) [Example 74] | 92 | 28 | 2600 | 
14 | Cc1cc(Cl)ccc1CNC(=O)c1cn(C2CC2)c2c(Cl)c(N3CCN(CCOCCO)CC3)c(F)cc2c1=O [Example 8, 8-Chloro-N-(4-chloro-2-methylbenzyl)-1-cyclopropyl-6-fluoro-7-{4-[2-(2-hydroxyethoxy)ethyl]piperazin-1-yl}-4-oxo-1,4-dihydroquinoline-3-carboxamide] | 190 | 41 | 7700 | 
15 | COc1c(N2C[C@@H](C)N(CC(=O)N(C)C)[C@@H](C)C2)c(F)cc2c(=O)c(C(=O)NCc3ccc(Cl)cc3Cl)cn(CC(F)(F)F)c12 [Example 54] | 8.5 | 2471 | 21000 | 
16 | COc1ccc(CNC(=O)c2cn(C3CC3)c3c(OC)c(N4C[C@@H](C)N[C@@H](C)C4)c(F)cc3c2=O)c(Cl)c1 [Example 22] | 380 | 22 | 8400 | 
17 | COc1c(N2C[C@@H](C)N[C@@H](C)C2)c(F)cc2c(=O)c(C(=O)NCc3ccc(OC(F)(F)F)cc3C)cn(CC(F)(F)F)c12 [Example 52, 7-[(3RS,5SR)-3,5-Dimethylpiperazin-1-yl]-6-fluoro-8-methoxy-N-[2-methyl-4-(trifluoromethoxy)benzyl]-4-oxo-1-(2,2,2-trifluoroethyl)-1,4-dihydroquinoline-3-carboxamide] | 19 | 405 | 7700 | 
18 | COc1c(N2C[C@@H](C)N[C@@H](C)C2)c(F)cc2c(=O)c(C(=O)NCc3ccc(Cl)cc3Cl)cn(C3CCC3)c12 [Example 40] | 110 | 100 | 11000 | 
19 | O=C(NCc1ccc(Cl)cc1Cl)c1cn(C2CC2)c2c(Cl)c(N3CCCN(CCO)CC3)c(F)cc2c1=O [Example 1, 8-Chloro-1-cyclopropyl-N-(2,4-dichlorobenzyl)-6-fluoro-7-[4-(2-hydroxyethyl)-1,4-diazepan-1-yl]-4-oxo-1,4-dihydroquinoline-3-carboxamide] | 200 | 12.5 | 2500 | 
